Experimental data as given in PMC8371902, “Phase 1 study of M2698, a p70S6K/AKT dual inhibitor, in patients with advanced cancer” (Journal of Hematology & Oncology, 2021).

Legend:
[1] = in vivo
Description: A monotherapy population PK model was developed, consisting of a two-compartment model with four absorption transit compartments and first-order elimination (Additional file 1: Table S5).

[2] = Food effect on M2698 pharmacokinetics (fed vs fasted, single 240 mg dose); type: in vivo, human
Description: Food effect was analyzed using an analysis of variance (performed on natural log-transformed values of area under the plasma concentration-time curve from time zero to infinity (AUC0-∞) and maximum plasma concentration (Cmax) including sequence, period, and fasting/fed condition as effect).
Two single doses of 240 mg M2698 were administered 7 days apart (fed then fasted states or vice versa) to assess any effect of food on pharmacokinetics; these patients then continued treatment with either 240 mg/day or 320 mg/day M2698 as part of the dose expansion cohort. (240 mg, n=7; 320 mg, n=5)
^*Fed vs fasting following single dose of 240 mg M2698. Main analysis performed on natural log-transformed values of AUC0-∞ and Cmax including sequence, period and fasting/fed condition as effect. For one of the eight evaluable patients, no AUC under fed conditions was determined.

[3] = Fasted, single dose of 240 mg, n=8

SMILES: NC(=O)c1cccc2c(N[C@H](CN3CCC3)c3ccc(Cl)c(C(F)(F)F)c3)ncnc12 [M2698]
- Additive RSV (residual variability), population PK estimate [1]: 3.44
- Proportional RSV (residual variability), population PK estimate [1]: 0.163
- AUC0-∞ (90% CI) [2, 3]: 40016.18 (22818.47–70175.36) ng.h/mL
- Cmax (90% CI) [2, 3]: 769.04 (410.14–1441.99) ng/mL
- AUC0-∞ (90% CI) ([2]; Fed, single dose of 240 mg, n=7): 38626.33 (21989.80–67849.37) ng.h/mL
- Cmax (90% CI) ([2]; Fed, single dose of 240 mg, n=8): 934.92 (498.61–1753.02) ng/mL
- Food effect on the exposure of M2698 ([2]; in vivo): no apparent food effect
- Cmax Fed/fasted ratio (90% CI) ([2]; single dose of 240 mg, p=0.3917): 1.2157 (0.8058–1.8341) p=0.3917
- AUC0-∞ Fed/fasted ratio (90% CI) ([2]; single dose of 240 mg, p=0.6504): 0.9653 (0.8326–1.1191) p=0.6504
